Common to all, as to assay type: cell-based
Assay [1] concerns the target T1, IKZF2 (Homo sapiens, UniProt Q96SW2+Q9UKS7). The assay can be described thus: HEK293 HiBiT in vitro degradation of IKZF2. Details: expressed in transfected cells. Conditions: for Dmax: HEK293, HEK293 HiBiT; for DC50: 18-24 hr incubation, normalized to DMSO control, read-out: IKZF2 EC50. A digest of the protocol: (§1)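 Read-out: Nano-Glo lytic HiBiT luminescence after 18-24 h compound exposure at 37 °C, fitted to EC50 and Dmax. Cells were Flp-In T-REx HEK293 expressing linker-HiBiT fused to the C-terminus of each target, doxycycline-induced ([…] final) overnight beforehand.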
Target sequence in this assay (Q9UKS7 1-500 isoform Q9UKS7-2): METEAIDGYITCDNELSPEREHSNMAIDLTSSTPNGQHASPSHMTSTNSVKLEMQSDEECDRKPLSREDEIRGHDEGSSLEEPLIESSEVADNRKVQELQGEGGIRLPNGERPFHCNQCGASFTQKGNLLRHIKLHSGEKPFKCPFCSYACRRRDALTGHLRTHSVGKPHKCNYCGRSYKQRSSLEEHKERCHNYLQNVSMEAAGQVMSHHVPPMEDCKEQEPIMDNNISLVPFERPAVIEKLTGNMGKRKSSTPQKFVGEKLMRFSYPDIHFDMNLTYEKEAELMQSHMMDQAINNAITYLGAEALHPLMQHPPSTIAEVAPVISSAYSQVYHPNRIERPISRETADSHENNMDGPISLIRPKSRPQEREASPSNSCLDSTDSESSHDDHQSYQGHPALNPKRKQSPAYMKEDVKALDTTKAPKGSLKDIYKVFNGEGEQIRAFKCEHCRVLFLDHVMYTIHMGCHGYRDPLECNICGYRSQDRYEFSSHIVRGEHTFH
Target sequence in this assay (Q96SW2 whole entry, the tested form may be a part): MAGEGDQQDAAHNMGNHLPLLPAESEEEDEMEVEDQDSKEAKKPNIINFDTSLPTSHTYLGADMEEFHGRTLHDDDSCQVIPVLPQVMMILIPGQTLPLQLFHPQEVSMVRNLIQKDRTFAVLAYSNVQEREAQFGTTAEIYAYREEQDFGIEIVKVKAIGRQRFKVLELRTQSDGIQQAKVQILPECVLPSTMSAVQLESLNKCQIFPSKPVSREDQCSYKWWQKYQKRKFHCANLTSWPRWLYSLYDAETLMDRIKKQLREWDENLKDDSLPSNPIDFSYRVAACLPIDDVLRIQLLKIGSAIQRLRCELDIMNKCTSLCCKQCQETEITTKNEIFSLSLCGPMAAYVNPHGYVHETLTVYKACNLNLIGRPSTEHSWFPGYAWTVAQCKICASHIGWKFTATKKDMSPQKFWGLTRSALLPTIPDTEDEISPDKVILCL
Target sequence in this assay (Q16531 whole entry partner, the tested form may be a part): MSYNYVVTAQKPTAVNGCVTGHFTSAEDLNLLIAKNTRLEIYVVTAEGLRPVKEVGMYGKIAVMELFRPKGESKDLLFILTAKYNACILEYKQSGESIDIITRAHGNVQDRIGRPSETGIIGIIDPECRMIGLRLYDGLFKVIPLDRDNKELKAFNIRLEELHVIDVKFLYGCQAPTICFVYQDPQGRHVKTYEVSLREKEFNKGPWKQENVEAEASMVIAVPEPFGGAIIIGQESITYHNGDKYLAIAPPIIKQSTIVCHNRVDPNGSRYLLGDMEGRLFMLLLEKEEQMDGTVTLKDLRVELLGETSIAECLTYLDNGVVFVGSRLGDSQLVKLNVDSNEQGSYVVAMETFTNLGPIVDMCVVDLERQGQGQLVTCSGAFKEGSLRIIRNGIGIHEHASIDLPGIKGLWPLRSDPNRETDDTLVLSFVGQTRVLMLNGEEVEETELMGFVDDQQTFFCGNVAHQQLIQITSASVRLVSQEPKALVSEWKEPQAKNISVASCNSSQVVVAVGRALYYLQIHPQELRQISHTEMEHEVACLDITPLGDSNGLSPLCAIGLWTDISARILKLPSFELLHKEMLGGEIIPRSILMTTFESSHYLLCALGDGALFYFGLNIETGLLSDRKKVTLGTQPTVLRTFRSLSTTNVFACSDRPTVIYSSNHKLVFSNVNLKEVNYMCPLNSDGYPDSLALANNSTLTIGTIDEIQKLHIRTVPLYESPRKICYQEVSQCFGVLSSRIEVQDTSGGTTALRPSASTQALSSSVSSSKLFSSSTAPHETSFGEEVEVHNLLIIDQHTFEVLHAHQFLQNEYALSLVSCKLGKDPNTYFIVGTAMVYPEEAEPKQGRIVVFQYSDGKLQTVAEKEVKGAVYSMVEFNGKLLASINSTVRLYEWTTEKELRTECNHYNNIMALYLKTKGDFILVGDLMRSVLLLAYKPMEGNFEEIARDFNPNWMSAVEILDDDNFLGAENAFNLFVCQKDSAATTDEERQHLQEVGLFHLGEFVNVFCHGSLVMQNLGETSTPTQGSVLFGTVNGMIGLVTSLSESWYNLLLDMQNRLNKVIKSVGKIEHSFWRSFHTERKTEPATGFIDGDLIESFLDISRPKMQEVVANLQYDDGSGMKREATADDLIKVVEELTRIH
A general note: With HiBiT, luminescence reflects the tagged protein that the partner subunit can reach.

The target in assay [2] is T1, IKZF2. The assay can be described thus: Human whole blood IKZF2 degradation (flow cytometry, CD4/CD25/Foxp3+ Treg cells). Details: endogenous in cells. Conditions: 24 hrs incubation, IKZF2 MFI in CD4/CD25/Foxp3+ Treg cells, flow cytometry; for DC50: read-out: IKZF2 EC50. The method, boiled down:
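Fresh healthy-donor human whole blood stimulated with CD3/CD28 activator and serially diluted compound for 24 hrs at 37° C. IKZF2 MFI in CD4/CD25/Foxp3+ Tregs (IKZF1 MFI in CD4+ T cells) measured by flow cytometry after RBC lysis, fixation, permeabilization. EC50 and Dmax versus DMSO wells.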
Target sequence in this assay (Q9UKS7 whole entry, the tested form may be a part): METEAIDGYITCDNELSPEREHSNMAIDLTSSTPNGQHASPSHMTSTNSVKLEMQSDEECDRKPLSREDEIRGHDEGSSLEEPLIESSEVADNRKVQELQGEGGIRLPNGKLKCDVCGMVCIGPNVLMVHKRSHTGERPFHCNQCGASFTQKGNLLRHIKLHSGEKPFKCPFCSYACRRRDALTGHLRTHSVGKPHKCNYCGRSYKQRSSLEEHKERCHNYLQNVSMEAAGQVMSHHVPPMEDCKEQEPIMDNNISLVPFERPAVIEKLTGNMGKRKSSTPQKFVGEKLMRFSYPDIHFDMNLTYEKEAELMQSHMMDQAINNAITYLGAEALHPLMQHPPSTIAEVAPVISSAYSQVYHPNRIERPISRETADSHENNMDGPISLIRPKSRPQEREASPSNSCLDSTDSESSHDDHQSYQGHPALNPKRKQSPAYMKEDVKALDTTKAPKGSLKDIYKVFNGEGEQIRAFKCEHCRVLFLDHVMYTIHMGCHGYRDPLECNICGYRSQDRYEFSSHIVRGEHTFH
Target sequence in this assay (Q96SW2 whole entry, the tested form may be a part): as the sequence (Q96SW2 whole entry, the tested form may be a part) above
Target sequence in this assay (Q16531 whole entry partner, the tested form may be a part): as the sequence (Q16531 whole entry partner, the tested form may be a part) above

In another assay the target is T2, IKZF1 (Homo sapiens, UniProt Q13422+Q96SW2).
T2 construct: expressed in transfected cells
The assay can be described thus: HEK293 HiBiT in vitro degradation of IKZF1. Conditions: for Dmax: HEK293, HEK293 HiBiT, maximum degradation at the highest concentration tested; for DC50: HEK293 HiBiT, 18-24 hr incubation, normalized to DMSO control, read-out: IKZF1 EC50. The method, boiled down: as §1

The target in assay [3] is T1, IKZF2. The assay can be described thus: HEK293 IKZF2 degradation kinetics (HiBiT, timepoints 1-24 h). Details: expressed in transfected cells. Conditions: for kinact: HEK293, IKZF2, timepoints 1, 2, 3, 4.5 and 24 hour, read-out: Maximum degradation rate Kinact (converted). As for the experimental part:
The assay technology and principles for evaluating IKZF2 degradation kinetics in HEK293 cells was identical to the HEK293 degradation assay as described above. Additional details are briefly described below.
On Day 1, Cells were grown and induced the same as described above. On Days 2 and 3, compounds for testing were dispensed via ECHO and cells were lifted and plated into compound-spotted assay plates as above. Plates were returned to the 37° C. incubator until addition of Nano-Glo lytic reagent at 1, 2, 3, 4.5, and 24 hour timepoints. At these timepoints, plates were read on Envision reader as above.
All raw data was normalized to DMSO control (final concentration: 0.5%) wells as POC and plotted out as a function of time to generate the degradation rate constant (K) value. The maximum degradation rate (Kinact) was determined by plotting the K value as a function of concentration for each compound tested. Kinact values are shown in Table 25 and the degradation rate plots as well as timecourse of degradation are shown for select compounds in FIG. 1A, FIG. 1B, FIG. 2A and FIG. 2B.
Target sequence in this assay (Q9UKS7 1-500 isoform Q9UKS7-2): as the sequence (Q9UKS7 1-500 isoform Q9UKS7-2) above
Target sequence in this assay (Q96SW2 whole entry, the tested form may be a part): as the sequence (Q96SW2 whole entry, the tested form may be a part) above
Target sequence in this assay (Q16531 whole entry partner, the tested form may be a part): as the sequence (Q16531 whole entry partner, the tested form may be a part) above

The target of another assay is T3, SALL4 (Homo sapiens, UniProt Q96SW2+Q9UJQ4).
T3 construct: expressed in transfected cells
The assay can be described thus: HEK293 HiBiT in vitro degradation of SALL4. The note with it: 18-24 hr incubation, normalized to DMSO control, read-out: SALL4 EC50. As for the experimental part: In vitro degradation of IKZF1, IKZF2, and SALL4 was measured using HiBiT protein tagging and detection technology (Promega).
HiBit technology was used to develop the quantitative assays to measure the cellular IKZFs level by tagging an 11 amino acid HiBit peptides […] to the protein of interest. Reporter plasmids were generated by fusing a linker sequence ([…]) followed by the HiBit tag at the C-terminus of IKZF1, IKZF2, and SALL4. The fusion fragments were subsequently cloned into pcDNA5 pcDNA™5/FRT/TO plasmids (Thermo Fisher, cat #V652020) downstream of the tetracycline operator. The resulting plasmids were co-transfected with pOG44 Flp-Recombinase Expression Vector (Thermo Fisher, cat #V600520) into Flp-In™ T-REx HEK293 line (Thermo Fisher, cat #R78077) and a stable cell pool was selected by adding 100 µg/ml of Hygromycin (Thermo Fisher, cat #10687010). The reporter cell enabled Tet-On inducible reporter expression from a single copy of the integrated gene.
On Day 1, Cells were grown to ˜80% confluency in tissue culture medium (DMEM Glutamax (Gibco10569), 10% Tet free FBS (Takara 631106), and PenStrep Glutamin (Gibco 10378)) in tissue culture flasks. Doxycycline was then added to a final concentration of […] to induce reporter expression at 37° C. overnight.
On Day 2, 125 nL of serially-diluted solution of testing compounds were dispensed into 384-well white solid assay plates via ECHO acoustic liquid handler. Cells were lifted by 0.25% Trypsin (Gibco 25200) then pelleted by centrifugation (Beckman Avanti J-E) at 500×g for 5 min. Cell pellets were resuspended in TC medium at the concentration of 3e5/mL and 25 μL of cell suspension were added into each well of compound-spotted plates. The plates were returned to a 37° C. incubator overnight (18-24 hr).
On Day 3, assay plates were removed from the tissue culture incubator and 25 μL of Nano-Glo lytic detection system (Promega, cat #N3030) was added to each well. Plates were incubated at r.t. for 3 min with shaking, and luminescence was read using an Envision reader (Perkin Elmer).
To assess the IKZF1, IKZF2, and SALL4 degrader potential of exemplified compounds of this disclosure and certain Reference Compounds EC50 and Dmax values were determined for the compounds of Examples 1 to 383 and Reference Compounds A-1, B-1, B-2, B-3, B-4, and C-1 in the HiBiT assays. Asterisks (*) indicate examples for which the data shown represents an average of n≥3.

Where [4] appears, read: maximum degradation at the highest concentration tested.

A value given as a limit tells only on which side of the number the result lay.

The term Dmax denotes the greatest extent of degradation seen. Usually kinact stands for the maximal first-order rate at which the target is inactivated.

T2 sequence (Q13422 whole entry): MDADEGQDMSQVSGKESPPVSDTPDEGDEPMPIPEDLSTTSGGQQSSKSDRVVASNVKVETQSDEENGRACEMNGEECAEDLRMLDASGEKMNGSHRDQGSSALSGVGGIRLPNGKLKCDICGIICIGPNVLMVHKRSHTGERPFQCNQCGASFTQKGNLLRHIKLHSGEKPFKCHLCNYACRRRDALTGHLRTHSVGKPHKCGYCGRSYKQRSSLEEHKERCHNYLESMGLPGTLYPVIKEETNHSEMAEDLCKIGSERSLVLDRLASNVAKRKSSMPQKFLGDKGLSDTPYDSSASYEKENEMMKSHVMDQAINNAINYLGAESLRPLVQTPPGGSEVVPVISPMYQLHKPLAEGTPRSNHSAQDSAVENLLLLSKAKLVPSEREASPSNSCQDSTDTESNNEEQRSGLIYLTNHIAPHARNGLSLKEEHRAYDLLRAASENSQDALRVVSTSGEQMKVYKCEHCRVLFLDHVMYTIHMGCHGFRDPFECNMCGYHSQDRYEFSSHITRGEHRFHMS
T2 sequence (Q96SW2 whole entry): as the sequence (Q96SW2 whole entry, the tested form may be a part) above
T2 sequence (Q16531 whole entry partner): as the sequence (Q16531 whole entry partner, the tested form may be a part) above
T3 sequence (Q9UJQ4 whole entry): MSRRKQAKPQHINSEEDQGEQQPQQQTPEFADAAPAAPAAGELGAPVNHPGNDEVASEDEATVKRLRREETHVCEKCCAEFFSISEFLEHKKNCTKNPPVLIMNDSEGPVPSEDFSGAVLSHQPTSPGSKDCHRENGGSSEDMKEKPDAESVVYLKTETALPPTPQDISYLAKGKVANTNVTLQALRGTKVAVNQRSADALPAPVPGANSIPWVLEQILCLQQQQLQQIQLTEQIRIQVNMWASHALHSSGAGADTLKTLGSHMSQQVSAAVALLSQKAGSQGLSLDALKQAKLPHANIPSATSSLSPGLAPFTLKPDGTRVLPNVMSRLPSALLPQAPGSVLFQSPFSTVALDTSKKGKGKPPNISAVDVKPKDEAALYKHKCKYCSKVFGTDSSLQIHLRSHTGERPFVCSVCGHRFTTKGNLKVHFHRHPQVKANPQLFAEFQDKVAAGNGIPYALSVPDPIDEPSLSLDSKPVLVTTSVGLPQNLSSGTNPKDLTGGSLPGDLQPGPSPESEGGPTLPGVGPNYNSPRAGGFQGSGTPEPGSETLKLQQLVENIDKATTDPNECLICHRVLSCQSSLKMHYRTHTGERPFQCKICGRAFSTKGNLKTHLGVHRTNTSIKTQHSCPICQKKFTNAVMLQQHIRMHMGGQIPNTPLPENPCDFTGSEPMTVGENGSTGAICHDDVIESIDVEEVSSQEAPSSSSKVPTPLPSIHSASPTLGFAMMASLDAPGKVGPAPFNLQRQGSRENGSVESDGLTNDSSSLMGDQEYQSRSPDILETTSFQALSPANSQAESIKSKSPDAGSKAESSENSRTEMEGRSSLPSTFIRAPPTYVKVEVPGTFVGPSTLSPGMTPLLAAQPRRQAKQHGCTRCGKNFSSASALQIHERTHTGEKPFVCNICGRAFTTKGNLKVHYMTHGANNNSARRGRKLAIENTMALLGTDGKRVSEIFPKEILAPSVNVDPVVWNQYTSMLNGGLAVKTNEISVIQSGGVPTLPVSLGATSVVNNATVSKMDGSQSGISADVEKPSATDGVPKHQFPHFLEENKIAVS
T3 sequence (Q96SW2 whole entry): as the sequence (Q96SW2 whole entry, the tested form may be a part) above
T3 sequence (Q16531 whole entry partner): as the sequence (Q16531 whole entry partner, the tested form may be a part) above

With `O=C1CCC(N2Cc3c(ccc(C[C@H]4OCCC[C@@H]4NC4CCC(C(F)(F)F)CC4)c3F)C2=O)C(=O)N1` (single isomer, unassigned) [Example 257], the values for the Dmax on IKZF2 [1] (setting [4]), at IKZF2 [2] and at IKZF1 were 99%, 93% and 34%, respectively. For the same compound, the values for the DC50 on IKZF2 [1] (HEK293 HiBiT), on IKZF2 [2] and at IKZF1 were 3 nM, 5 nM and 69 nM, respectively. For the same compound, the kinact on IKZF2 [3] is 0.000133 s⁻¹.
On to `O=C1CCC(N2Cc3c(ccc(C[C@H]4OCCC[C@@H]4N[C@H]4CC[C@H](F)CC4)c3F)C2=O)C(=O)N1` (single isomer, unassigned) [Example 289], for which the Dmax at IKZF2 [1] (setting [4]) turned out to be 97%; at IKZF2 [2], 90%; at IKZF1, 31%. Further, the DC50 on IKZF2 [1] (HEK293 HiBiT) was 5 nM; at IKZF2 [2], 5 nM; at IKZF1, 632 nM; at SALL4 it was greater than 10000 nM. The kinact at IKZF2 [3] is 0.000131 s⁻¹.
For `O=C1CCC(N2Cc3c(ccc(C[C@H]4OCCC[C@@H]4N[C@H]4CC[C@@H](F)CC4)c3F)C2=O)C(=O)N1` (single isomer, unassigned) [Example 290], the values for the Dmax at IKZF2 [1] (setting [4]), at IKZF2 [2] and at IKZF1 were 98%, 96% and 27%, respectively. The DC50 at IKZF2 [1] (HEK293 HiBiT) is 4 nM; on IKZF2 [2] it was 6 nM; on IKZF1, 138 nM; at SALL4, greater than 10000 nM.
For the compound `CC(N[C@H]1CCCO[C@@H]1Cc1ccc2c(c1F)CN(C1CCC(=O)NC1=O)C2=O)C1CCOCC1` (single isomer, unassigned) [Example 291], the Dmax was found to be 94% at IKZF2 [1] (setting [4]) and 96% on IKZF2 [2]. In addition, the DC50 on IKZF2 [1] (HEK293 HiBiT) is 10 nM; at IKZF2 [2], 5 nM; on IKZF1, greater than 1000 nM; on SALL4 it was greater than 10000 nM. Besides, the inactivation rate constant (kinact) on IKZF2 [3] is 8.61e-05 s⁻¹.
Take `CC1CC[C@H](NC2CCC(F)(F)CC2)[C@@H](Cc2ccc3c(c2)CN(C2CCC(=O)NC2=O)C3=O)C1` (single isomer, unassigned) [Example 325]: the DC50 at IKZF2 [1] (HEK293 HiBiT) was 5 nM; on IKZF1 it was greater than 1000 nM; at SALL4, greater than 10000 nM. Moreover, at IKZF2 [1] (HEK293 HiBiT, maximum degradation at the highest concentration tested), the “IKZF2 Dmax” value amounted to 95%. For the same compound, the kinact on IKZF2 [3] was 0.000108 s⁻¹.
For the compound `O=C1CC[C@@H](N2Cc3cc(C[C@H]4CCCC[C@@H]4NC4CCC(F)(F)CC4)ccc3C2=O)C(=O)N1` (single isomer, unassigned) [Example 329], the Dmax at IKZF2 [1] (setting [4]) was 98%; at IKZF2 [2], 97%; on IKZF1, 53%. Moreover, the DC50 is 2 nM at IKZF2 [1] (HEK293 HiBiT), 4 nM on IKZF2 [2], 50 nM at IKZF1 and greater than 10000 nM at SALL4. Besides, at IKZF2 [3], the kinact was 0.000158 s⁻¹.
At IKZF2 [1] (setting [4]), `O=C1CC[C@@H](N2Cc3c(ccc(C[C@H]4OCCC[C@@H]4N[C@H]4CC[C@H](F)CC4)c3F)C2=O)C(=O)N1` (single isomer, unassigned) [Example 373] came in with a Dmax of 94%. Moreover, the DC50 was 7 nM on IKZF2 [1] (HEK293 HiBiT) and greater than 1000 nM at IKZF1. The kinact on IKZF2 [3] was 0.000111 s⁻¹.
`O=C1CCC(N2Cc3cc(C[C@H]4CCCC[C@@H]4NCc4ccccc4)ccc3C2=O)C(=O)N1` (stereo partly drawn) [Example 2, 3-(5-(((1R,2S)-2-(benzylamino)cyclohexyl)methyl)-1-oxoisoindolin-2-yl)piperidine-2,6-dione] yielded a Dmax at IKZF2 [1] (setting [4]) of 88%. Further, the values for the DC50 at IKZF2 [1] (HEK293 HiBiT) and on IKZF1 were 18 nM and greater than 10000 nM, respectively. Besides, the “speed of IKZF2 degradation compared with Reference Compounds A-1, B-3, B-4, C-1” value at IKZF2 [3] (HEK293) is recorded as “faster degradation of IKZF2”. Moreover, the kinact at IKZF2 [3] is 0.000147 s⁻¹.
On to `O=C1CCC(N2Cc3cc(C[C@H]4CCCC[C@@H]4NC4CCCCC4)ccc3C2=O)C(=O)N1` (stereo partly drawn) [Example 53, 3-(5-(((1R,2S)-2-(cyclohexylamino)cyclohexyl)methyl)-1-oxoisoindolin-2-yl)piperidine-2,6-dione], for which the maximal degradation (Dmax) on IKZF2 [1] (setting [4]) and on IKZF2 [2] was 96% throughout. Further, the figures for the DC50 at IKZF2 [1] (HEK293 HiBiT), on IKZF2 [2] and at IKZF1 were 3 nM, 4 nM and greater than 1000 nM, respectively. In addition, the inactivation rate constant (kinact) at IKZF2 [3] is 0.000147 s⁻¹.
With `O=C1CCC(N2Cc3c(ccc(C[C@H]4CCCC[C@@H]4NC4CCCC4)c3F)C2=O)C(=O)N1` (stereo partly drawn) [Example 87, 3-(5-(((1R,2S)-2-(cyclopentylamino)cyclohexyl)methyl)-4-fluoro-1-oxoisoindolin-2-yl)piperidine-2,6-dione], the Dmax at IKZF2 [1] (setting [4]) amounted to 98%; on IKZF2 [2] it was 95%; at IKZF1, 39%. In addition, the DC50 was determined as 2 nM on IKZF2 [1] (HEK293 HiBiT), 3 nM at IKZF2 [2] and 62 nM on IKZF1. Besides, the kinact on IKZF2 [3] is 0.000139 s⁻¹.
`O=C1CCC(N2Cc3c(ccc(C[C@H]4CCCC[C@@H]4NC4CCOCC4)c3F)C2=O)C(=O)N1` (stereo partly drawn) [Example 116]: the Dmax was 98% on IKZF2 [1] (setting [4]), 89% at IKZF2 [2] and 34% at IKZF1. Further, the DC50 at IKZF2 [1] (HEK293 HiBiT) was determined as 2 nM; at IKZF2 [2] it was 1 nM; at IKZF1 it was 44 nM. For the same compound, the inactivation rate constant (kinact) at IKZF2 [3] is 0.00015 s⁻¹.
Turning to `O=C1CCC(N2Cc3c(ccc(C[C@H]4OCCC[C@@H]4NC4CCCCC4)c3F)C2=O)C(=O)N1` (stereo partly drawn) [Example 181], the Dmax is 96% at IKZF2 [1] (setting [4]) and 99% at IKZF2 [2]. The DC50 at IKZF2 [1] (HEK293 HiBiT) was 6 nM; on IKZF2 [2], 8 nM; at IKZF1 it was greater than 1000 nM. In addition, on IKZF2 [3], the kinact was 0.000106 s⁻¹.
Take `O=C1CCC(N2Cc3cc(O[C@H]4CCCC[C@@H]4NCc4ccccc4)ccc3C2=O)C(=O)N1` (stereo partly drawn) [Example B-3]: the Dmax at IKZF2 [1] (setting [4]) was 84%. In addition, the kinact at IKZF2 [3] is 5.56e-05 s⁻¹.
Take `O=C1CCC(N2Cc3cc(N[C@H]4CCCC[C@@H]4NCc4ccccc4)ccc3C2=O)C(=O)N1` (stereo partly drawn) [Example C-1]: the Dmax on IKZF2 [1] (setting [4]) stood at 64%. At IKZF2 [3], the kinact is 8.33e-06 s⁻¹.

For the origin of these results see patent US11897862B2 (Gilead Sciences, Inc., priority 2022, dated 2024).
